Experimental data published in patent publication US9238631B2, “Radiolabeled amino acids for diagnostic imaging” (PIRAMAL IMAGING SA, priority 2011, dated 2016).

Legend:
[1] = system: NCI-H460 (human NSCLC) cells; assay: In vitro cell-uptake study: blocking of radiolabeled glutamate derivative uptake; format: cell-based; settings: compound 1 mM, 30 minutes, mean ± SD, without compound = 100%
Procedure: The ability of compounds from the present invention to compete with radiolabeled glutamate derivatives for uptake into tumor cells was examined. NCI-H460 (human NSCLC) cells, grown adherently in 48 well plates were used for these competition-experiments. Approximately 100.000 cells were co-incubated in PBS-buffer containing 0.1% BSA with a radiolabeled Glutamic acid derivative and several compounds, which were used at a concentration of 1 mM for 30 minutes. After this time, the cell bound radioactivity was determined.

[2] = system: NCI-H460 tumor; assay: PET imaging in NCI-H460 tumor bearing nude-rats; format: in vivo; settings: PET ROI analysis, 1 h p.i.
Procedure: c) Beside PET-imaging studies in mice, also the imaging properties of [^18F]-12 in rats were examined. NCI-H460 tumor cells were inoculated into the right flank of nude-rats (RH-Foxn1 nu/nu) 8 to 10 days before the PET study. PET images were acquired at 60 min after injection of approximately 10 MBq for 10 minutes. The H460 tumor was nicely visible (0.9% ID/g as determined by ROI analysis). Beside some minor uptake into the liver and kidneys due to the excretion of the compound, no uptake into other non-target tissues was observed.
To test the imaging properties, compounds from the present invention were evaluated in PET imaging studies using tumor bearing rats. NCI-H460 tumor cells were inoculated into the right flank of nude-rats (RH-Foxn1 nu/nu) 8 to 10 days before the PET study. PET images were acquired at 60 min after injection of approximately 10 MBq for 10 minutes. After the imaging study, region-of-interest (ROI) analysis was performed and activity in tumor, liver and kidney was determined. […] High tumor uptake values of >1% […] in this rat model were obtained with various compounds from the present invention. A favorable clearance profile of all compounds enables excellent tumor detection in PET imaging studies in tumor bearing rats.

[3] = system: NCI-H460 tumor; assay: In vivo biodistribution in NCI-H460 tumor bearing mice; settings: for T/Blood / T/Muscle: 1 h post injection
Procedure: (§1) To test the pharmacokinetic properties of compounds from the present invention, all F18-labeled compounds were examined by biodistribution studies in NCI-H460 tumor bearing mice. Female NMRI (nu/nu) mice were inoculated with 5×10^6 NCI-H460 tumor cells 8 to 10 days before the biodistribution studies. 185 kBq of activity of the fluorinated compound was injected and at least n=3 mice were used for every time point. After injection of the F18-labeled compound, mice were sacrificed at defined time-points. All organs were removed and radioactivity was determined using a γ-counter.
To compare the tumor uptake and retention of radioactivity of different ^18F-labeled derivatives from the present invention, biodistribution studies were performed in NCI-H460 tumor bearing NMRI (nu/nu) mice as described above.
To compare the kidney clearance of several ^18F-labeled derivatives from the present invention, biodistribution studies were performed in NCI-H460 tumor bearing female NMRI (nu/nu) mice as described above. […] After 2 h p.i., less than 1% ID/g can be found in the kidneys.
For comparison of pancreas uptake and clearance of several ^18F-labeled derivatives from the present invention, biodistribution studies were performed in NCI-H460 tumor bearing NMRI (nu/nu) mice as described above. […] After 2 h p.i., less than 2% ID/g can be found in the pancreas.
as §1, with “and” for “for every time point. After injection of the F18-labeled compound, mice were”, “time-points raning from 15 min pi up to 2 h p.i.” for “time-points.”, “γ-counter. […] High tumor uptake values of >3% ID/g were obtained with various compounds from the present invention.” for “γ-counter.”

| Structure (SMILES) | Kidney (% ID/g at 1 h p.i.) [2] [% ID/g] | Liver (% ID/g at 1 h p.i.) [2] [% ID/g] | Tumor (Max % ID/g at 1 h p.i.) [2] [% ID/g] | Tumor (Mean % ID/g at 1 h p.i.) [2] [% ID/g] | Kidney (% ID/g at 1 h p.i.) [3] [% ID/g] | Liver (% ID/g at 1 h p.i.) [3] [% ID/g] | Pancreas (% ID/g at 1 h p.i.) [3] [% ID/g] | Tumor (% ID/g at 1 h p.i.) [3] [% ID/g] | Urine (% ID at 1 h p.i.) [3] [% ID] | T/Blood [3] | T/Muscle [3] | tumor uptake and retention (summary statement) ([3]; mouse, in vivo) | Uptake of radiolabeled glutamate-derivative (% of control) [1] |
| --- | --- | --- | --- | --- | --- | --- | --- | --- | --- | --- | --- | --- | --- |
| N[C@@H](CCC(=O)O)C(=O)O [L-glutamic acid, L-glutamate, reference compound] | – | – | – | – | – | – | – | – | – | – | – | – | 26.1 ± 0.3 % of control |
| N[C@@H](CC(Cc1ccc(OCC[18F])c[n+]1[O-])C(=O)O)C(=O)O (stereo partly drawn) [[^18F]-35, 4-{[5-(2-[^18F]fluoroethoxy)-1-oxidopyridin-2-yl]methyl}-L-glutamic acid] | 3.1 | 0.2 | 0.5 | 0.2 | – | – | – | – | – | – | – | – | – |
| N[C@H](CCC(Cc1ccc(OCC[18F])cc1)C(=O)O)C(=O)O (stereo partly drawn) [[^18F]-16, (2R)-2-Amino-5-[4-(2-[^18F]fluoroethoxy)benzyl]hexanedioic acid] | 1.7 | 2.3 | 2.1 | 0.8 | 3.4 ± 0.3 | 3.3 ± 0.1 | 1.4 ± 0.1 | 3.6 ± 0.6 | 74.5 ± 6.8 | 14.1 | 54.2 | – | – |
| N[C@@H](CCC(Cc1ccc(OCC[18F])cc1)C(=O)O)C(=O)O (stereo partly drawn) [[^18F]-12 C5-1] [(2S)-2-amino-5-[4-([^18F]fluoroethoxy)benzyl]hexanedioic acid] | 0.8 | 1.2 | 3.4 | 1.3 | – | – | – | – | – | – | – | – | – |
| N[C@H](C[C@@H](Cc1ccc(OCCF)cc1)C(=O)O)C(=O)O [Example 23, (4R)-4-[4-(2-Fluoroethoxy)benzyl]-D-glutamic acid] | – | – | – | – | – | – | – | – | – | – | – | – | 43.8 ± 3.2 % of control |
| N[C@@H](CCC(Cc1ccc(OCC[18F])cc1)C(=O)O)C(=O)O (stereo partly drawn) [[^18F]-12 C5-2] [(2S)-2-amino-5-[4-(fluoroethoxy)benzyl]hexanedioic acid] | 0.4 | 0.5 | 3.7 | 1.6 | – | – | – | – | – | – | – | – | – |
| N[C@@H](CC(Cc1ccc(OCC[18F])c(O)c1)C(=O)O)C(=O)O (stereo partly drawn) [[^18F]-44, 4-[4-(2-[^18F]fluoroethoxy)-3-hydroxybenzyl]-L-glutamic acid] | – | – | – | – | 2.5 ± 0.7 | 0.95 ± 0.1 | 1.2 ± 0.1 | 3.3 ± 1.2 | 80.6 ± 10.1 | 28.2 | 71.1 | – | – |
| N[C@@H](CCC(Cc1ccc(OCC[18F])cn1)C(=O)O)C(=O)O (stereo partly drawn) [[^18F]-32, (2S)-2-Amino-5-{[5-(2-[^18F]fluoroethoxy)pyridin-2-yl]methyl}hexanedioic acid] | – | – | – | – | 3.9 ± 1.0 | 2.3 ± 0.2 | 0.7 ± 0.1 | 2.3 ± 0.9 | 81.0 ± 7.5 | 17.9 | 23.5 | – | – |
| N[C@@H](CCC(Cc1ccc(OC[18F])cc1)C(=O)O)C(=O)O (single isomer, unassigned) [[^18F]-41 C5-1] | 0.5 | 0.4 | 3.2 | 1.2 | 3.5 ± 0.7 | 0.3 ± 0.1 | 2.2 ± 0.3 | 6.4 ± 1.4 | 85.0 ± 7.7 | 23.4 | 94.2 | – | – |
| N[C@@H](CC(Cc1ccc(OCC[18F])cn1)C(=O)O)C(=O)O (some centres unmarked) [[^18F]-17] | 2.4 | 0.9 | 2.6 | 1.2 | – | – | – | – | – | – | – | – | – |
| N[C@@H](CCC(Cc1ccc(OC[18F])cc1)C(=O)O)C(=O)O (single isomer, unassigned) [[^18F]-41 C5-2] | 0.2 | 0.2 | 4.4 | 2.0 | 2.4 ± 0.8 | 0.3 ± 0.1 | 1.1 ± 0.2 | 8.7 ± 1.9 | 83.5 ± 5.1 | 36.0 | 107.3 | – | – |

Now from value to compound, other results behind:

| Kidney (% ID/g at 1 h p.i.) [2] [% ID/g] | Liver (% ID/g at 1 h p.i.) [2] [% ID/g] | Tumor (Max % ID/g at 1 h p.i.) [2] [% ID/g] | Tumor (Mean % ID/g at 1 h p.i.) [2] [% ID/g] | Kidney (% ID/g at 1 h p.i.) [3] [% ID/g] | Liver (% ID/g at 1 h p.i.) [3] [% ID/g] | Pancreas (% ID/g at 1 h p.i.) [3] [% ID/g] | Tumor (% ID/g at 1 h p.i.) [3] [% ID/g] | Urine (% ID at 1 h p.i.) [3] [% ID] | T/Blood [3] | T/Muscle [3] | tumor uptake and retention (summary statement) ([3]; mouse, in vivo) | Structure (SMILES) | Uptake of radiolabeled glutamate-derivative (% of control) [1] |
| --- | --- | --- | --- | --- | --- | --- | --- | --- | --- | --- | --- | --- | --- |
| 4.6 | 1.7 | 0.63 | 0.3 | – | – | – | – | – | – | – | – | N[C@@H](CC(Cc1ccc(OC[C@H](O)[C@@H](O)C[18F])cc1)C(=O)O)C(=O)O (stereo partly drawn) [[^18F]-58, 4-(4-{[(2S,3R)-4-(^18F)fluoro-2,3-dihydroxybutyl]oxy}benzyl)-L-glutamic acid] | – |
| – | – | – | – | 5.2 ± 1.1 | 0.7 ± 0.2 | 0.2 ± 0.03 | 1.0 ± 0.1 | 77 ± 6.7 | 9.9 | 25 | – | N[C@@H](CC(Cc1ccc(OCC[18F])nc1)C(=O)O)C(=O)O (stereo partly drawn) [[^18F]-56, 4-({6-[2-(^18F)fluoroethoxy]pyridin-3-yl}methyl)-L-glutamic acid] | – |
| – | – | – | – | 3.5 ± 1.1 | 2.6 ± 0.4 | 7.5 ± 1.1 | 8.2 ± 2.1 | 66.8 ± 10.3 | 32.5 | 95.4 | high tumor uptake and retention | N[C@@H](CCC(Cc1ccc(NCC[18F])cc1)C(=O)O)C(=O)O (stereo partly drawn) [[^18F]-52, (2S)-2-amino-5-(4-{[2-(^18F)fluoroethyl]amino}benzyl)hexanedioic acid] | – |
| 2.2 | 0.9 | 2.2 | 1.0 | – | – | – | – | – | – | – | – | N[C@@H](CC(Cc1ccc(OC(CO)C[18F])cc1)C(=O)O)C(=O)O (stereo partly drawn) [[^18F]-60, 4-(4-{[1-(^18F)fluoro-3-hydroxypropan-2-yl]oxy}benzyl)-L-glutamic acid] | – |
| 2.9 | 1.7 | 1.3 | 0.7 | – | – | – | – | – | – | – | – | N[C@@H](CC(Cc1ccc(C[18F])cc1)C(=O)O)C(=O)O (stereo partly drawn) [[^18F]-66, 4-{4-[(^18F)fluoromethyl]benzyl}-L-glutamic acid] | – |
| 0.9 | 0.2 | 1.6 | 0.8 | 1.8 ± 0.4 | 0.2 ± 0.08 | 0.8 ± 0.1 | 2.8 ± 1.4 | 79 ± 7.8 | 23.3 | 30.4 | – | N[C@@H](C[C@H](Cc1ccc(OC[18F])cc1)C(=O)O)C(=O)O [[^18F]-48, (4S)-4-{4-[(^18F)fluoromethoxy]benzyl}-L-glutamic acid] | – |
| 1.0 | 0.2 | 2.4 | 1.1 | – | – | – | – | – | – | – | – | N[C@@H](C[C@@H](Cc1ccc(OC[18F])cc1)C(=O)O)C(=O)O [[^18F]-50, (4R)-4-{4-[(^18F)fluoromethoxy]benzyl}-L-glutamic acid] | – |
